The values below come from patent publication US7932277B2, “Peptide inhibitors of hepatitis C virus replication” (InterMune, Inc., priority 2007, dated 2011).

The test system of experiment [1] is HCV sub-genomic replicon (1377/NS3-3') in HuH-7 hepatoma cells (GS4.3). Briefly: Quantitation by ELISA of NPTII in the HCV sub-genomic replicon, GS4.3. The format is cell-based, hepatitis C virus (HCV). Conditions: GS4.3 cells, 72 h incubation, NPTII ELISA, read-out: Replicon EC50. In a few lines:
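GS4.3 cells (HuH-7 carrying HCV 1377/NS3-3′ replicon) treated 72 h at 37 °C with compound at 3-fold dilutions from 10 μM to 56 pM final, 1% DMSO, without G418. NPTII in lysates quantified by ELISA (450 nm). Signal expressed as percent of DMSO control; EC50 by 4-parameter fit.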
In general terms: In an ELISA, binding on a coated surface is turned into a signal by an enzyme label.

The target in experiment [2] is T1, NS3/NS4A-2 (full-length HCV NS3 protease complexed with NS4A-2) (Hepatitis C virus genotype 1a, UniProt P27958).
T1 construct: Recombinant E. coli or Baculovirus full-length NS3; host or cells: E. coli or baculovirus (insect cells)
T1 sequence (P27958 1027-1657, one chain of several): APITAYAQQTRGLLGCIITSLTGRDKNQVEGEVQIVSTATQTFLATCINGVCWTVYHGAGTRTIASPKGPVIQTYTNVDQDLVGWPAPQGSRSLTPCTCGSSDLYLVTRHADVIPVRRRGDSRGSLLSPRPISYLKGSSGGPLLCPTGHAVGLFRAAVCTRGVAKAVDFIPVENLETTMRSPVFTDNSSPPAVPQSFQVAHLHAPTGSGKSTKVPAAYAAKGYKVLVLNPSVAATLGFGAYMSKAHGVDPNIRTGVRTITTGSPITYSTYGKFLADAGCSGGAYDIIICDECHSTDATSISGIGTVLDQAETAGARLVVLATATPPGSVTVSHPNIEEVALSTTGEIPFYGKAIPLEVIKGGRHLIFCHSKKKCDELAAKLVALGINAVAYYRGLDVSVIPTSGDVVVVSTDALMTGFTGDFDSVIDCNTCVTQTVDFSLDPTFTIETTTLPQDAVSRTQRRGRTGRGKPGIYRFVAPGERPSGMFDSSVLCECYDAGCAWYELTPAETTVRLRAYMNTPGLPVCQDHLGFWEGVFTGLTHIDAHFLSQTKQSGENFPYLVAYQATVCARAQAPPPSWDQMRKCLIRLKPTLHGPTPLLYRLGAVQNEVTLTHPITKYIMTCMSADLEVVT
Briefly: NS3 inhibition assay (NS3-NS4 protease assay). The format is biochemical. In a few lines: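 Full-length NS3 (E. coli-expressed at 2 nM or baculovirus-expressed at 3 nM) precomplexed with excess NS4A-2 peptide and preincubated with compound (top concentration 50 μM) for 10 min at room temperature. RETS1 substrate added; fluorescence read kinetically for 30 min (ex 335/em 495 nm). IC50 converted to Ki using Km 2.03 μM (E. coli) or 1.74 μM (baculovirus).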

Where [3] appears, read: recombinant full-length NS3/NS4A-2, RETS1 substrate, kinetic fluorescence read, read-out: NS3-NS4 IC50.

Like-named read-outs stand apart in the source and are kept apart here.

In general, EC50 refers to the concentration needed to bring the measured effect to its halfway point. The IC50 is the concentration that gives 50% inhibition. As for `C=CCCCCC[C@H](Nc1ccc(F)cc1)C(=O)N1C[C@H](OC(=O)N2Cc3cccc(F)c3C2)C[C@H]1C(=O)N[C@]1(C(=O)NS(=O)(=O)C2CC2)C[C@H]1C=C` [Compound 35, [(3R,5S)-5-((1R,2S)-1-(cyclopropylsulfonylcarbamoyl)-2-vinylcyclopropylcarbamoyl)-1-((S)-2-(4-fluorophenylamino)non-8-enoyl)pyrrolidin-3-yl]4-floroisoindoline-2-carboxylate], the half-maximal effective concentration (EC50) in experiment [1] (Hepatitis C virus, Huh-7) was in the range of 1 to 10 µM. Also, in experiment [2] (setting [3]), the IC50 is under 0.1 µM.

Take `C=C[C@@H]1C[C@]1(NC(=O)[C@@H]1Cc2cc(Oc3cccc(Cl)c3)ccc2CN1C(=O)[C@@H](Nc1ccc(F)cc1)C(C)(C)C)C(=O)NS(=O)(=O)C1CC1` [Compound 11, (S)-6-(3-chlorophenoxy)-N-((1R,2S)-1-(cyclopropylsulfonylcarbamoyl)-2-vinylcyclopropyl)-2-((S)-2-(4-fluorophenylamino)-3,3-dimethylbutanoyl)-1,2,3,4-tetrahydroisoquinoline-3-carboxamide]: in experiment [1] (Hepatitis C virus, Huh-7), the half-maximal effective concentration (EC50) is 10 to 50 µM. Further, the IC50 in experiment [2] (setting [3]) was under 0.1 µM.

As for `CC[C@@H]1C[C@]1(NC(=O)[C@@H]1C[C@@H](OC(=O)N2Cc3cccc(Cl)c3C2)CN1C(=O)[C@@H](Nc1cccc(C(F)(F)F)c1)C(C)(C)C)C(=O)NOC(C)(C)C` [Compound 71], the EC50 in experiment [1] (Hepatitis C virus, Huh-7) was in the range of 0.1 to 1 µM. Moreover, the IC50 in experiment [2] (setting [3]) fell in the range of 0.1 to 1 µM.

As for `C=C[C@@H]1C[C@]1(NC(=O)[C@@H]1C[C@@H](OC(=O)N2Cc3cccc(F)c3C2)CN1C(=O)[C@@H](Nc1cncc(C(F)(F)F)c1)C(C)C)C(=O)NS(=O)(=O)C1CC1` [Compound 44, [(3R,5S)-5-((1R,2S)-1-(cyclopropylsulfonylcarbamoyl)-2-vinylcyclopropylcarbamoyl)-1-((S)-3-methyl-2-(5-(trifluoromethyl)pyridin-3-ylamino)butanoyl)pyrrolidin-3-yl]4-fluoroisoindoline-2-carboxylate], the EC50 in experiment [1] (Hepatitis C virus, Huh-7) fell in the range of 0.1 to 1 µM. In addition, the half-inhibitory concentration (IC50) in experiment [2] (setting [3]) was under 0.1 µM.

As to `C=C[C@@H]1C[C@]1(NC(=O)[C@@H]1C[C@@H](OC(=O)N2Cc3cccc(F)c3C2)CN1C(=O)[C@@H](Nc1ccc(Br)cc1)C(C)C)C(=O)NS(=O)(=O)C1CC1` [Compound 36, [(3R,5S)-5-((1R,2S)-1-(cyclopropylsulfonylcarbamoyl)-2-vinylcyclopropylcarbamoyl)-1-((S)-2-(4-bromophenylamino)-3-methylbutanoyl)pyrrolidin-3-yl]4-fluoroisoindoline-2-carboxylate], the EC50 in experiment [1] (Hepatitis C virus, Huh-7) is 0.1 to 1 µM. For the same compound, the IC50 in experiment [2] (setting [3]) was under 0.1 µM.

With `C=C[C@@H]1C[C@]1(NC(=O)[C@@H]1C[C@@H](OC(=O)N2Cc3cccc(F)c3C2)CN1C(=O)[C@@H](Nc1cccc(C(C)(C)C)c1)C(C)C)C(=O)NS(=O)(=O)C1CC1` [Compound 40, [(3R,5S)-1-((S)-2-(3-tert-butylphenylamino)-3-methylbutanoyl)-5-((1R,2S)-1-(cyclopropylsulfonylcarbamoyl)-2-vinylcyclopropylcarbamoyl)pyrrolidin-3-yl]4-fluoroisoindoline-2-carboxylate], the EC50 in experiment [1] (Hepatitis C virus, Huh-7) is under 0.1 µM. The half-inhibitory concentration (IC50) in experiment [2] (setting [3]) is under 0.1 µM.

“[(3R,5S)-5-(((1R,2S)-1-(cyclopropylsulfonylcarbamoyl)-2-vinylcyclopropyl)carbamoyl)-1-((S)-2-cyclohexyl-2-(5-ethylthiazol-2-ylamino)acetyl)pyrrolidin-3-yl]4-chloroisoindoline-2-carboxylate [Compound 62]”: in experiment [1], the EC50 is under 0.1 µM. For the same compound, in experiment [2] (setting [3]), the IC50 was under 0.1 µM.

For `C=C[C@@H]1C[C@]1(NC(=O)C1Cc2cc(Oc3cccc(Cl)c3)ccc2CN1C(=O)[C@@H](Nc1ccc(F)cc1)C(C)(C)C)C(=O)NS(=O)(=O)C1CC1` (stereo partly drawn) [Compound 10, 6-(3-chlorophenoxy)-N-((1R,2S)-1-(cyclopropylsulfonylcarbamoyl)-2-vinylcyclopropyl)-2-((S)-2-(4-fluorophenylamino)-3,3-dimethylbutanoyl)-1,2,3,4-tetrahydroisoquinoline-3-carboxamide], in experiment [1] (Hepatitis C virus, Huh-7), the EC50 lay within 1 to 10 µM. The IC50 in experiment [2] (setting [3]) was under 0.1 µM.

With `C=C[C@@H]1C[C@]1(NC(=O)C1Cc2cc(Oc3cccc(Cl)c3)ccc2CN1C(=O)[C@@H](Nc1cccc(C(C)(C)C)c1)C(C)C)C(=O)NS(=O)(=O)C1CC1` (stereo partly drawn) [Compound 13, 2-((S)-2-(3-tert-butylphenylamino)-3-methylbutanoyl)-6-(3-chlorophenoxy)-N-((1R,2S)-1-(cyclopropylsulfonylcarbamoyl)-2-vinylcyclopropyl)-1,2,3,4-tetrahydroisoquinoline-3-carboxamide], the EC50 in experiment [1] (Hepatitis C virus, Huh-7) was in the range of 10 to 50 µM. In addition, the IC50 in experiment [2] (setting [3]) is under 0.1 µM.

On to `CC[C@@H]1C[C@]1(NC(=O)[C@@H]1C[C@@H](OC(=O)N2Cc3cccc(Cl)c3C2)CN1C(=O)[C@@H](Nc1cccc(N2CCOCC2)c1)C(C)(C)C)C(=O)NS(=O)(=O)C1CC1` [Compound 75], for which the EC50 in experiment [1] (Hepatitis C virus, Huh-7) is under 0.1 µM. Besides, the concentration for half-maximal inhibition (IC50) in experiment [2] (setting [3]) is under 0.1 µM.

Turning to “[(3R,5S)-5-(((1R,2R)-1-(Cyclopropylsulfonylcarbamoyl)-2-ethylcyclopropyl)carbamoyl)-1-((S)-2-(5-isopropylthiazol-2-ylamino)-3-methylbutanoyl)pyrrolidin-3-yl]4-chloroisoindoline-2-carboxylate [Compound 67]”, the EC50 in experiment [1] was under 0.1 µM. For the same compound, in experiment [2] (setting [3]), the IC50 is under 0.1 µM.

For the compound `CC[C@@H]1C[C@]1(NC(=O)[C@@H]1C[C@@H](OC(=O)N2Cc3cccc(F)c3C2)CN1C(=O)[C@@H](Nc1ccc(F)c(C(F)(F)F)c1)C(C)C)C(=O)NS(=O)(=O)C1CC1` [Compound 52, [(3R,5S)-5-((1R,2R)-1-(cyclopropylsulfonylcarbamoyl)-2-ethylcyclopropylcarbamoyl)-1-((S)-2-(4-fluoro-3-(trifluoromethyl)phenylamino)-3-methylbutanoyl)pyrrolidin-3-yl]4-fluoroisoindoline-2-carboxylate], in experiment [1] (Hepatitis C virus, Huh-7), the EC50 was under 0.1 µM. Moreover, the IC50 in experiment [2] (setting [3]) is under 0.1 µM.

`CC[C@@H]1C[C@]1(NC(=O)[C@@H]1C[C@@H](OC(=O)N2Cc3cccc(Cl)c3C2)CN1C(=O)[C@@H](Nc1cccc(C(F)(F)F)c1)C(C)(C)C)C(=O)NS(=O)(=O)C1(C)CC1` [Compound 81]: the EC50 in experiment [1] (Hepatitis C virus, Huh-7) was under 0.1 µM. In experiment [2], the IC50 is under 0.1 µM.

In the case of `CC[C@@H]1C[C@]1(NC(=O)[C@@H]1C[C@@H](OC(=O)N2Cc3cccc(F)c3C2)CN1C(=O)[C@@H](Nc1cccc(C(F)(F)F)c1)C(C)(C)C)C(=O)NS(=O)(=O)C1CC1` [Compound 56, [(3R,5S)-5-((1R,2R)-1-(cyclopropylsulfonylcarbamoyl)-2-ethylcyclopropylcarbamoyl)-1-((S)-3,3-dimethyl-2-(3-(trifluoromethyl)phenylamino)butanoyl)pyrrolidin-3-yl]4-fluoroisoindoline-2-carboxylate], the 50% effective concentration (EC50) in experiment [1] (Hepatitis C virus, Huh-7) is under 0.1 µM. Moreover, the IC50 in experiment [2] (setting [3]) was under 0.1 µM.
